A logP of 3.67 was found for `CCOc1ccc2oc3cc(-c4nn[nH]n4)ccc3c(=O)c2c1` in this work. A logP of 4.59 was found for `CCCc1ccc2oc3cc(C(=O)O)ccc3c(=O)c2c1` in this work. A logP of 3.73 was found for `CCCC(=O)OCCOc1ccc2oc3cc(-c4nnn[nH]4)ccc3c(=O)c2c1` in this work. A logP of 3.99 was found for `CCOc1ccc2oc3cc(C(=O)O)ccc3c(=O)c2c1` in this work. A logP of 4.06 was found for `CCSc1ccc2oc3cc(-c4nnn[nH]4)ccc3c(=O)c2c1` in this work. A logP of 3.37 was found for `COc1ccc2oc3cc(C(=O)O)ccc3c(=O)c2c1` in this work. A logP of 2.52 was found for `N#Cc1ccc2oc3ccc(-c4nnn[nH]4)cc3c(=O)c2c1` in this work. A logP of 3.12 was found for `COCc1ccc2oc3cc(C(=O)O)ccc3c(=O)c2c1` in this work. A logP of 2.86 was found for `O=c1c2ccccc2oc2cc(-c3nn[nH]n3)ccc12` in this work. A logP of 3.15 was found for `COc1ccc2oc3cc(-c4nnn[nH]4)ccc3c(=O)c2c1` in this work. A logP of 2.62 was found for `O=C(O)c1ccc2c(=O)c3cc(OCCOCCO)ccc3oc2c1` in this work. A logP of 4.69 was found for `CCCCOc1ccc2oc3cc(-c4nnn[nH]4)ccc3c(=O)c2c1` in this work. A logP of 2.87 was found for `CC(O)COc1ccc2oc3cc(C(=O)O)ccc3c(=O)c2c1` (configuration not stated) in this work. A logP of 5 was found for `CCCCOc1ccc2oc3cc(C(=O)O)ccc3c(=O)c2c1` in this work. A logP of 4 was found for `CCCC(=O)OCCOc1ccc2oc3cc(C(=O)O)ccc3c(=O)c2c1` in this work. A logP of 4.36 was found for `CCSc1ccc2oc3cc(C(=O)O)ccc3c(=O)c2c1` in this work. A logP of 3.12 was found for `O=C(O)c1ccc2c(=O)c3cc([N+](=O)[O-])ccc3oc2c1` in this work. A logP of 2.31 was found for `O=c1c2ccc(-c3nnn[nH]3)cc2oc2ccc(OCCO)cc12` in this work. A logP of 2.83 was found for `O=c1c2ccc(-c3nnn[nH]3)cc2oc2ccc([N+](=O)[O-])cc12` in this work. A logP of 2.46 was found for `O=C(O)c1ccc2c(=O)c3cc(OCCO)ccc3oc2c1` in this work. A logP of 2.18 was found for `Nc1ccc2oc3cc(-c4nnn[nH]4)ccc3c(=O)c2c1` in this work. A logP of 2.3 was found for `Nc1ccc2oc3cc(C(=O)O)ccc3c(=O)c2c1` in this work.
